Assay results taken from patent publication US20250250252A1, “PIPERIDINYLBENZONITRILE DERIVATIVES AS INHIBITORS OF GLUTAMINYL-PEPTIDE CYCLOTRANSFERASE AND GLUTAMINYL-PEPTIDE CYCLOTRANSFERASE LIKE PROTEIN” (Boehringer Ingelheim International GmbH, priority 2024, published 2025).

How the values were obtained:
[1] = Assay C: Permeability in CACO-2 cells; format: in vitro ADME; settings: human, Caco-2, pH 7.2; pair comparison without/with 4-fluoropiperidyl; read-out: Efflux ratio (BA/AB)
Description: (§1) Caco-2 cells (1-2×10^5 cells/1 cm^2 area) are seeded on filter inserts (Costar transwell polycarbonate or PET filters, 0.4 μm pore size) and cultured (DMEM) for 10 to 25 days. Compounds are dissolved in appropriate solvent (like DMSO, 1-20 mM stock solutions). […] The transport solution (TL) is applied to the apical or basolateral donor side for measuring A-B or B-A permeability (3 filter replicates), respectively. Samples are collected at the start and end of experiment from the donor and at various time intervals for up to 2 hours also from the receiver side for concentration measurement by HPLC-MS/MS or scintillation counting. Sampled receiver volumes are replaced with fresh receiver solution.
(§2) Efflux ratio (ER)=permeability B-A/permeability A-B

CACO-2 cells = experiment: Assay C: Permeability in CACO-2 cells; format: in vitro ADME; settings: pair comparison without/with 4-fluoropiperidyl
Description: as §1, §2

## Cn1cnnc1C1CCN(c2c(C#N)cc(Cl)nc2-c2ccc(F)nc2)CC1 [Example 18 in WO 2024/020517]
[1]
  efflux ratio: 3.3
CACO-2 cells
  CACO2 Perm.: 23.0 10^−6 cm/sec

## Cn1cnnc1C1CCN(c2c(-c3cnc4nn(C(C)(C)C)cc4c3)ccc(C(F)(F)F)c2C#N)CC1 [Example 32 in EP 23161417.3]
CACO-2 cells
  CACO2 Perm.: 0.2 10^−6 cm/sec

## Cn1cnnc1C1CCN(c2c(C#N)cc(C(F)(F)F)nc2-c2cnc3nn(C(C)(C)C)c(Cl)c3c2)CC1
[1]
  efflux ratio: 36.4
CACO-2 cells
  CACO2 Perm.: 1.0 10^−6 cm/sec

## Cn1cnnc1C1CCN(c2c(C#N)cc(F)cc2-c2ccc(F)nc2)CC1 [Example 130 in WO 2024/020517]
CACO-2 cells
  CACO2 Perm.: 24.0 10^−6 cm/sec

## Cn1cnnc1C1(F)CCN(c2c(-c3ccc(F)nc3)ccnc2C#N)CC1 [Example 10 in EP 22188580.9]
CACO-2 cells
  CACO2 Perm.: 11.0 10^−6 cm/sec

## Cn1cnnc1C1(F)CCN(c2c(C#N)cc(C(F)(F)F)nc2-c2cnc3nn(C(C)(C)C)c(Cl)c3c2)CC1 [Example 3 in EP 23189886.7]
[1]
  efflux ratio: 1
CACO-2 cells
  CACO2 Perm.: 47.0 10^−6 cm/sec

## Cn1cnnc1C1(F)CCN(c2c(C#N)cccc2-c2cnc3nn(C(C)(C)C)cc3c2)CC1 [Example 62 in EP 22216126.7]
CACO-2 cells
  CACO2 Perm.: 4.9 10^−6 cm/sec

## Cn1cnnc1C1CCN(c2c(C#N)cc(Cl)cc2-c2cnc3nn(C(C)(C)C)cc3c2)CC1 [Example 17 in EP 23161417.3]
CACO-2 cells
  CACO2 Perm.: 2.5 10^−6 cm/sec

## Cn1cnnc1C1CCN(c2c(C#N)cccc2-c2ccnnc2)CC1 [Example 11 in WO 2024/020517]
[1]
  efflux ratio: 28.1
CACO-2 cells
  CACO2 Perm.: 0.3 10^−6 cm/sec

## Cn1cnnc1C1(F)CCN(c2c(C#N)cc(F)cc2-c2ccc(F)nc2)CC1 [Example 6 in EP 23161417.3]
CACO-2 cells
  CACO2 Perm.: 44.0 10^−6 cm/sec

## Cn1cnnc1C1(F)CCN(c2c(C#N)ccnc2-c2ccc(F)nc2)CC1 [Example 1 in EP 22188580.9]
CACO-2 cells
  CACO2 Perm.: 28.0 10^−6 cm/sec

## Cn1cnnc1C1(F)CCN(c2c(C#N)cccc2-c2ccc(F)nc2)CC1 [Example 56 in EP 23161417.3]
CACO-2 cells
  CACO2 Perm.: 50.0 10^−6 cm/sec

## Cn1cnnc1C1(F)CCN(c2c(-c3cnc4nn(C(C)(C)C)cc4c3)ccc(C(F)(F)F)c2C#N)CC1 [Example 30 in EP 23161417.3]
CACO-2 cells
  CACO2 Perm.: 1.7 10^−6 cm/sec

## Cn1cnnc1C1CCN(c2c(-c3ccc(F)nc3)ccnc2C#N)CC1 [Example 132 in WO 2024/020517]
CACO-2 cells
  CACO2 Perm.: 1.8 10^−6 cm/sec

## Cn1cnnc1C1CCN(c2c(C#N)cccc2-c2cnc3nn(C(C)(C)C)cc3c2)CC1 [Example 50 in EP 22216126.7]
CACO-2 cells
  CACO2 Perm.: 0.5 10^−6 cm/sec

## Cn1cnnc1C1(F)CCN(c2c(C#N)cc(C(F)(F)F)nc2-c2cnc3nn(C(C)(C)C)c(C(F)(F)F)c3c2)CC1 [Example 4 in EP 23189886.7]
[1]
  efflux ratio: 0.6
CACO-2 cells
  CACO2 Perm.: 99.5 10^−6 cm/sec

## Cn1cnnc1C1(F)CCN(c2c(C#N)cc(Cl)nc2-c2ccc(F)nc2)CC1 [Example 18 in EP 23161417.3]
[1]
  efflux ratio: 1
CACO-2 cells
  CACO2 Perm.: 66.0 10^−6 cm/sec

## Cn1cnnc1C1(F)CCN(c2c(C#N)cccc2-c2ccnnc2)CC1 [Example 52 in EP 22216126.7]
CACO-2 cells
  CACO2 Perm.: 15.0 10^−6 cm/sec

## Cn1cnnc1C1(F)CCN(c2c(C#N)cc(F)cc2-c2cnc3nn(C(C)(C)C)c(C(F)(F)F)c3c2)CC1
[1]
  efflux ratio: 0.8
CACO-2 cells
  CACO2 Perm.: 51.0 10^−6 cm/sec

## Cn1cnnc1C1CCN(c2c(C#N)cc(F)cc2-c2cnc3nn(C(C)(C)C)c(C(F)(F)F)c3c2)CC1
[1]
  efflux ratio: 5.7
CACO-2 cells
  CACO2 Perm.: 17.0 10^−6 cm/sec

## Cn1cnnc1C1CCN(c2c(C#N)ccnc2-c2ccc(F)nc2)CC1 [Example 133 in WO 2024/020517]
CACO-2 cells
  CACO2 Perm.: 4.8 10^−6 cm/sec

## Cn1cnnc1C1(F)CCN(c2c(C#N)cc(C(F)(F)F)cc2-c2ccc(F)nc2)CC1 [Example 4 in EP 23161417.3]
CACO-2 cells
  CACO2 Perm.: 40.5 10^−6 cm/sec

## Cn1cnnc1C1CCN(c2c(C#N)cc(C(F)(F)F)nc2-c2cnc3nn(C(C)(C)C)c(C(F)(F)F)c3c2)CC1 [Example 13 in EP 23189886.7]
[1]
  efflux ratio: 5.7
CACO-2 cells
  CACO2 Perm.: 3.7 10^−6 cm/sec

## Cn1cnnc1C1CCN(c2c(C#N)cc(C(F)(F)F)cc2-c2ccc(F)nc2)CC1 [Example 70 in WO 2024/020517]
CACO-2 cells
  CACO2 Perm.: 9.0 10^−6 cm/sec

## Cn1cnnc1C1(F)CCN(c2c(C#N)cc(Cl)cc2-c2cnc3nn(C(C)(C)C)cc3c2)CC1 [Example 19 in EP 23161417.3]
CACO-2 cells
  CACO2 Perm.: 18.0 10^−6 cm/sec
